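Interpolation was linear, between the two tested concentrations surrounding the appropriate level; five concentrations were tested over 48 hours in 96-well plates. At the GI50, growth is halved. At the TGI there is no net growth.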
Assays:
Experiment in all cases: NCI anticancer screen, dose series, 48 h
[1] = test system: OVCAR-4 ovarian
[2] = test system: CAKI-1 renal
[3] = test system: IGROV1 ovarian
[4] = test system: A498 renal
[5] = test system: SW-620 colon
[6] = test system: SK-MEL-5 melanoma
[7] = test system: HOP-62 NSCLC
[8] = test system: SF-268 CNS
[9] = test system: NCI-H522 lung
[10] = test system: HCC-2998 colon
[11] = test system: K-562 leukemia
[12] = test system: HOP-92 NSCLC
[13] = test system: MCF7 breast
[14] = test system: T-47D breast
[15] = test system: OVCAR-8 ovarian
[16] = test system: TK-10 renal
[17] = test system: HCT-116 colon
[18] = test system: HCT-15 colon
[19] = test system: RXF 393 renal
[20] = test system: CCRF-CEM leukemia
[21] = test system: U251 CNS
[22] = test system: SR leukemia
[23] = test system: OVCAR-5 ovarian
[24] = test system: MDA-MB-435
[25] = test system: SN12C renal
[26] = test system: MDA-MB-231 breast
[27] = test system: KM12 colon
[28] = test system: HL-60(TB) leukemia
[29] = test system: SF-539 CNS
[30] = test system: SF-295 CNS
[31] = test system: NCI/ADR-RES ovarian
[32] = test system: BT-549 breast
[33] = test system: EKVX NSCLC
[34] = test system: HS 578T breast
[35] = test system: COLO 205 colon
[36] = test system: M14 melanoma
[37] = test system: SNB-19 CNS
[38] = test system: PC-3 prostate
[39] = test system: 786-0 renal
[40] = test system: SK-MEL-28 melanoma
[41] = test system: NCI-H23 lung
[42] = test system: NCI-H226 lung
[43] = test system: NCI-H460 lung
[44] = test system: UACC-257 melanoma
[45] = test system: LOX IMVI melanoma
[46] = test system: SNB-75 CNS
[47] = test system: MOLT-4 leukemia
[48] = test system: HT29 colon
[49] = test system: A549 NSCLC
[50] = test system: RPMI-8226 leukemia
[51] = test system: SK-OV-3 ovarian
[52] = test system: SK-MEL-2 melanoma
[53] = test system: UACC-62 melanoma
[54] = test system: MALME-3M melanoma
[55] = test system: DU-145 prostate

`COc1ccc(-c2nnc(SCc3ccc(O)c4ncccc34)n2-c2ccccc2)cc1` was tested, and the GI50 [1] was 0.739 µM, the TGI [1] was greater than 100 µM and the GI50 [2] was 0.637 µM. The TGI [2] was 4.29 µM, the GI50 [3] was 0.892 µM and the TGI [3] was 25 µM. The GI50 [4] was 2.23 µM, the TGI [4] was 12.5 µM and the GI50 [5] was 0.438 µM. It also gave a TGI [5] greater than 100 µM, a GI50 [6] of 0.72 µM and a TGI [6] of 3.56 µM. It also gave a GI50 [7] of 1 µM, a TGI [7] of 16.7 µM and a GI50 [8] of 0.605 µM. The TGI [8] was 56.6 µM, the GI50 [9] was 0.479 µM and the TGI [9] was 11.1 µM. For the same compound, the GI50 [10] was 1.19 µM, the TGI [10] was greater than 100 µM and the GI50 [11] was 0.37 µM. For the same compound, the TGI [11] was greater than 100 µM, the GI50 [12] was 0.231 µM and the TGI [12] was 0.818 µM. For the same compound, the GI50 [13] was 0.395 µM, the TGI [13] was greater than 100 µM and the GI50 [14] was 0.929 µM. For the same compound, the TGI [14] was 4.2 µM, the GI50 [15] was 0.447 µM and the TGI [15] was 96.9 µM. For the same compound, the GI50 [16] was 0.87 µM, the TGI [16] was 7.51 µM and the GI50 [17] was 0.361 µM. It also gave a TGI [17] of 5.4 µM, a GI50 [18] of 0.328 µM and a TGI [18] greater than 100 µM. It also gave a GI50 [19] of 0.915 µM, a TGI [19] of 11.1 µM and a GI50 [20] of 0.424 µM. The TGI [20] was greater than 100 µM, the GI50 [21] was 0.389 µM and the TGI [21] was 13.8 µM. For the same compound, the GI50 [22] was 0.371 µM, the TGI [22] was greater than 100 µM and the GI50 [23] was 3.96 µM. It also gave a TGI [23] greater than 100 µM, a GI50 [24] of 0.468 µM and a TGI [24] greater than 100 µM. The GI50 [25] was 0.468 µM, the TGI [25] was greater than 100 µM and the GI50 [26] was 0.922 µM. The TGI [26] was 26.7 µM, the GI50 [27] was 0.619 µM and the TGI [27] was greater than 89 µM. It also gave a GI50 [28] of 0.397 µM, a TGI [28] of 3.41 µM and a GI50 [29] of 0.605 µM. For the same compound, the TGI [29] was 5.04 µM, the GI50 [30] was 0.449 µM and the TGI [30] was 6.84 µM. For the same compound, the GI50 [31] was 0.29 µM, the TGI [31] was 5.7 µM and the GI50 [32] was 0.572 µM. For the same compound, the TGI [32] was 17 µM, the GI50 [33] was 1.05 µM and the TGI [33] was 10.3 µM. For the same compound, the GI50 [34] was 0.491 µM, the TGI [34] was 10 µM and the GI50 [35] was 6.71 µM. The TGI [35] was greater than 100 µM, the GI50 [36] was 0.451 µM and the TGI [36] was 2.5 µM. The GI50 [37] was 0.553 µM, the TGI [37] was greater than 40.9 µM and the GI50 [38] was 0.526 µM. It also gave a TGI [38] of 28.3 µM, a GI50 [39] of 0.891 µM and a TGI [39] of 9.81 µM. For the same compound, the GI50 [40] was 0.726 µM, the TGI [40] was 31.3 µM and the GI50 [41] was 0.661 µM. For the same compound, the TGI [41] was 30.4 µM, the GI50 [42] was 2.46 µM and the TGI [42] was 98 µM. For the same compound, the GI50 [43] was 0.385 µM, the TGI [43] was 3.31 µM and the GI50 [44] was 1.02 µM. The TGI [44] was 10.7 µM, the GI50 [45] was 0.478 µM and the TGI [45] was 2.62 µM. The GI50 [46] was 0.951 µM, the TGI [46] was 6.13 µM and the GI50 [47] was 0.508 µM. It also gave a TGI [47] greater than 100 µM, a GI50 [48] of 4.9 µM and a TGI [48] greater than 100 µM. The GI50 [49] was 0.986 µM, the TGI [49] was greater than 60 µM and the GI50 [50] was 0.493 µM. It also gave a TGI [50] greater than 100 µM, a GI50 [51] of 0.745 µM and a TGI [51] of 9.23 µM. It also gave a GI50 [52] of 1.16 µM, a TGI [52] of 6.71 µM and a GI50 [53] of 1.31 µM. It also gave a TGI [53] of 4.98 µM, a GI50 [54] of 0.968 µM and a TGI [54] of 5.21 µM. It also gave a GI50 [55] of 0.637 µM and a TGI [55] greater than 53.5 µM.
With `NC(N)=Nc1ccc(Oc2cccc(Oc3ccc(Cl)c(C(F)(F)F)c3)c2)cn1` the GI50 [19] was 1.79 µM, the TGI [19] was 3.43 µM and the GI50 [46] was 1.33 µM. It also gave a TGI [46] of 2.67 µM.

Reference: PubChem BioAssay (NCI)
